Assay results as given in patent US20100004221A1, “THIAZEPINE DERIVATIVE” (DAIICHI SANKYO COMPANY, LIMITED, priority 2006, published 2010).

| SMILES | melting point [°C] |
| --- | --- |
| CC1(CO)Cc2nnc(-c3ccc(-c4ccc(F)cc4)cc3Cl)n2CCS1 (single isomer, unassigned; (+)) [Example 57, (+)-[3-(3-Chloro-4′-fluorobiphenyl-4-yl)-8-methyl-5,6,8,9-tetrahydro[1,2,4]triazolo[4,3-d][1,4]thiazepin-8-yl]methanol] | 211 to 214 |
| CC1(CO)Cc2nnc(-c3ccc(-c4ccc(F)cc4)cc3Cl)n2CCS1 (single isomer, unassigned; (-)) [Example 56, (−)-[3-(3-chloro-4′-fluorobiphenyl-4-yl)-8-methyl-5,6,8,9-tetrahydro[1,2,4]triazolo[4,3-d][1,4]thiazepin-8-yl]methanol] | 212 to 215 |
| COc1cc(-c2ccc(F)cc2)ccc1-c1nnc2n1CCSC(C)(CO)C2 (stereo not drawn) [Example 10, [3-(4′-Fluoro-3-methoxybiphenyl-4-yl)-8-methyl-5,6,8,9-tetrahydro[1,2,4]triazolo[4,3-d][1,4]thiazepin-8-yl]methanol] | 212 to 215 |
| CC1(CO)Cc2nnc(-c3ccc(-c4ccccc4F)cc3Cl)n2CCS1 (stereo not drawn) [Example 13, [3-(3-Chloro-2′-fluorobiphenyl-4-yl)-8-methyl-5,6,8,9-tetrahydro[1,2,4]triazolo[4,3-d][1,4]thiazepin-8-yl]methanol] | 147 to 149 |
| CC1(CO)Cc2nnc(-c3ccc(-c4ccccc4Cl)cc3Cl)n2CCS1 (stereo not drawn) [Example 14, [3-(3,2′-Dichlorobiphenyl-4-yl)-8-methyl-5,6,8,9-tetrahydro[1,2,4]triazolo[4,3-d][1,4]thiazepin-8-yl]methanol] | 177 to 180 |
| CC1(CO)Cc2nnc(-c3ccc(-c4ccc(Cl)cc4)cc3Cl)n2CCS1 (stereo not drawn) [Example 19, [3-(3,4′-Dichlorobiphenyl-4-yl)-8-methyl-5,6,8,9-tetrahydro[1,2,4]triazolo[4,3-d][1,4]thiazepin-8-yl]methanol] | 219 to 223 |
| CC1(CO)Cc2nnc(-c3ccc(-c4ccc(F)cc4)cc3C(F)(F)F)n2CCS1 (stereo not drawn) [Example 22, {3-[4′-Fluoro-3-(trifluoromethyl)biphenyl-4-yl)-8-methyl-5,6,8,9-tetrahydro[1,2,4]triazolo[4,3-d][1,4]thiazepin-8-yl]methanol] | 202 to 204 |
| CC1(CO)Cc2nnc(-c3ccc(-c4ccc(F)c(F)c4)cc3Cl)n2CCS1 (stereo not drawn) [Example 26, [3-(3-Chloro-3′,4′-difluorobiphenyl-4-yl)-8-methyl-5,6,8,9-tetrahydro[1,2,4]triazolo[4,3-d][1,4]thiazepin-8-yl]methanol] | 231 to 234 |
| CC1(CO)Cc2nnc(-c3ccc(-c4cc(F)cc(F)c4)cc3Cl)n2CCS1 (stereo not drawn) [Example 27, [3-(3-Chloro-3′,5′-difluorobiphenyl-4-yl)-8-methyl-5,6,8,9-tetrahydro[1,2,4]triazolo[4,3-d][1,4]thiazepin-8-yl]methanol] | 260 to 265 |
| CC1(CO)Cc2nnc(-c3ccc(-c4cccc(Cl)c4F)cc3Cl)n2CCS1 (stereo not drawn) [Example 28, [3-(3,3′-Dichloro-2′-fluorobiphenyl-4-yl)-8-methyl-5,6,8,9-tetrahydro[1,2,4]triazolo[4,3-d][1,4]thiazepin-8-yl]methanol] | 156 to 160 |
| CC1(CO)Cc2nnc(-c3ccc(-c4cc(Cl)ccc4F)cc3Cl)n2CCS1 (stereo not drawn) [Example 29, [3-(3,5′-Dichloro-2′-fluorobiphenyl-4-yl)-8-methyl-5,6,8,9-tetrahydro[1,2,4]triazolo[4,3-d][1,4]thiazepin-8-yl]methanol] | 186 to 189 |
| COc1cc(-c2ccc(F)c(F)c2)ccc1-c1nnc2n1CCSC(C)(CO)C2 (stereo not drawn) [Example 31, [3-(3′,4′-Difluoro-3-methoxybiphenyl-4-yl)-8-methyl-5,6,8,9-tetrahydro[1,2,4]triazolo[4,3-d][1,4]thiazepin-8-yl]methanol] | 183 to 185 |
| CC1(CO)Cc2nnc(-c3cccc(-c4ccc(F)cc4)c3Cl)n2CCS1 (stereo not drawn) [Example 33, [3-(2-Chloro-4′-fluorobiphenyl-3-yl)-8-methyl-5,6,8,9-tetrahydro[1,2,4]triazolo[4,3-d][1,4]thiazepin-8-yl]methanol] | 192 to 195 |
| CC1(CO)Cc2nnc(-c3cc(-c4ccc(F)cc4)ccc3Cl)n2CCS1 (stereo not drawn) [Example 34, [3-(4-Chloro-4′-fluorobiphenyl-3-yl)-8-methyl-5,6,8,9-tetrahydro[1,2,4]triazolo[4,3-d][1,4]thiazepin-8-yl]methanol] | 165 to 168 |
| CC1(CO)Cc2nnc(-c3ccc(-c4ccncc4)cc3Cl)n2CCS1 (stereo not drawn) [Example 36, {3-[2-Chloro-4-(pyridin-4-yl)phenyl]-8-methyl-5,6,8,9-tetrahydro[1,2,4]triazolo[4,3-d][1,4]thiazepin-8-yl}methanol] | 229 to 233 |
| CC1(CO)Cc2nnc(-c3ccc(N4CCOCC4)cc3Cl)n2CCS1 (stereo not drawn) [Example 37, {3-[2-Chloro-4-(morpholin-4-yl)phenyl]-8-methyl-5,6,8,9-tetrahydro[1,2,4]triazolo[4,3-d][1,4]thiazepin-8-yl}methanol] | 191 to 193 |
| CC1(CO)Cc2nnc(-c3ccc(N4CCCCC4)cc3Cl)n2CCS1 (stereo not drawn) [Example 38, {3-[2-Chloro-4-(piperidin-1-yl)phenyl]-8-methyl-5,6,8,9-tetrahydro[1,2,4]triazolo[4,3-d][1,4]thiazepin-8-yl}methanol] | 195 to 198 |
| CC1(CO)Cc2nnc(-c3ccc(N4CCCC4)cc3Cl)n2CCS1 (stereo not drawn) [Example 39, {3-[2-Chloro-4-(pyrrolidin-1-yl)phenyl]-8-methyl-5,6,8,9-tetrahydro[1,2,4]triazolo[4,3-d][1,4]thiazepin-8-yl}methanol] | 193 to 196 |
| CC1(CO)Cc2nnc(-c3ccc(-n4cccc4)cc3Cl)n2CCS1 (stereo not drawn) [Example 40, {3-[2-Chloro-4-(1H-pyrrol-1-yl)phenyl]-8-methyl-5,6,8,9-tetrahydro[1,2,4]triazolo[4,3-d][1,4]thiazepin-8-yl}methanol] | 110 to 112 |
| CC1(CO)Cc2nnc(-c3ccc(Oc4ccc(F)cc4)cc3Cl)n2CCS1 (stereo not drawn) [Example 42, {3-[2-Chloro-4-(4-fluorophenoxy)phenyl]-8-methyl-5,6,8,9-tetrahydro[1,2,4]triazolo[4,3-d][1,4]thiazepin-8-yl}methanol] | 138 to 140 |
| CC1(CO)Cc2nnc(-c3cccc4c3ccn4-c3ccc(F)cc3)n2CCS1 (stereo not drawn) [Example 43, {3-[1-(4-Fluorophenyl)-1H-indol-4-yl]-8-methyl-5,6,8,9-tetrahydro[1,2,4]triazolo[4,3-d][1,4]thiazepin-8-yl}methanol] | 117 to 120 |

The next lines start with the values.

| melting point [°C] | SMILES |
| --- | --- |
| 166 to 169 | CC1(CO)Cc2nnc(-c3ccc(-c4ccccc4)cc3Cl)n2CCS1 (stereo not drawn) [Example 9, [3-(3-Chlorobiphenyl-4-yl)-8-methyl-5,6,8,9-tetrahydro[1,2,4]triazolo[4,3-d][1,4]thiazepin-8-yl]methanol] |
| 165 to 168 | CC1(CO)Cc2nnc(-c3ccc(-c4cccc(Cl)c4)cc3F)n2CCS1 (stereo not drawn) [Example 11, [3-(3′-Chloro-3-fluorobiphenyl-4-yl)-8-methyl-5,6,8,9-tetrahydro[1,2,4]triazolo[4,3-d][1,4]thiazepin-8-yl]methanol] |
| 206 to 209 | CC1(CO)Cc2nnc(-c3ccc(-c4cccc(F)c4)cc3Cl)n2CCS1 (stereo not drawn) [Example 15, [3-(3-Chloro-3′-fluorobiphenyl-4-yl)-8-methyl-5,6,8,9-tetrahydro[1,2,4]triazolo[4,3-d][1,4]thiazepin-8-yl]methanol] |
| 173 to 176 | CC1(CO)Cc2nnc(-c3ccc(-c4cccc(Cl)c4)cc3Cl)n2CCS1 (stereo not drawn) [Example 16, [3-(3,3′-Dichlorobiphenyl-4-yl)-8-methyl-5,6,8,9-tetrahydro[1,2,4]triazolo[4,3-d][1,4]thiazepin-8-yl]methanol] |
| 195 to 198 | CC1(CO)Cc2nnc(-c3ccc(-c4cccc(C(F)(F)F)c4)cc3Cl)n2CCS1 (stereo not drawn) [Example 17, [3-(3-Chloro-3′-trifluoromethylbiphenyl-4-yl)-8-methyl-5,6,8,9-tetrahydro[1,2,4]triazolo[4,3-d][1,4]thiazepin-8-yl]methanol] |
| 181 to 184 | COc1cccc(-c2ccc(-c3nnc4n3CCSC(C)(CO)C4)c(Cl)c2)c1 (stereo not drawn) [Example 18, [3-(3-Chloro-3′-methoxybiphenyl-4-yl)-8-methyl-5,6,8,9-tetrahydro[1,2,4]triazolo[4,3-d][1,4]thiazepin-8-yl]methanol] |
| 223 to 225 | Cc1ccc(-c2ccc(-c3nnc4n3CCSC(C)(CO)C4)c(Cl)c2)cc1 (stereo not drawn) [Example 20, [3-(3-Chloro-4′-methylbiphenyl-4-yl)-8-methyl-5,6,8,9-tetrahydro[1,2,4]triazolo[4,3-d][1,4]thiazepin-8-yl]methanol] |
| 179 to 182 | COc1ccc(-c2ccc(-c3nnc4n3CCSC(C)(CO)C4)c(Cl)c2)cc1 (stereo not drawn) [Example 21, [3-(3-Chloro-4′-methoxybiphenyl-4-yl)-8-methyl-5,6,8,9-tetrahydro[1,2,4]triazolo[4,3-d][1,4]thiazepin-8-yl]methanol] |
| 173 to 176 | COc1cc(-c2cccc(Cl)c2)ccc1-c1nnc2n1CCSC(C)(CO)C2 (stereo not drawn) [Example 24, [3-(3′-Chloro-3-methoxybiphenyl-4-yl)-8-methyl-5,6,8,9-tetrahydro[1,2,4]triazolo[4,3-d][1,4]thiazepin-8-yl]methanol] |
| 232 to 236 | COc1cc(-c2cccc(C#N)c2)ccc1-c1nnc2n1CCSC(C)(CO)C2 (stereo not drawn) [Example 25, 4′-[8-(Hydroxymethyl)-8-methyl-5,6,8,9-tetrahydro[1,2,4]triazolo[4,3-d][1,4]thiazepin-3-yl]-3′-methoxybiphenyl-3-carbonitrile] |
| 235 to 239 | CC1(CO)Cc2nnc(-c3ccc(-c4ccc(F)c(Cl)c4)cc3Cl)n2CCS1 (stereo not drawn) [Example 30, [3-(3,3′-Dichloro-4′-fluorobiphenyl-4-yl)-8-methyl-5,6,8,9-tetrahydro[1,2,4]triazolo[4,3-d][1,4]thiazepin-8-yl]methanol] |
| 206 to 209 | CC1(CO)Cc2nnc(-c3ccc(-c4cccnc4)cc3Cl)n2CCS1 (stereo not drawn) [Example 35, {3-[2-Chloro-4-(pyridin-3-yl)phenyl]-8-methyl-5,6,8,9-tetrahydro[1,2,4]triazolo[4,3-d][1,4]thiazepin-8-yl}methanol] |
